From patent US6593342B1, “Pharmaceutical compositions comprising 2-quinolones” (Laboratoire L. Lafon, priority 1998, dated 2003)

Experiments:
[1] = tested on: HCT-15; experiment: MTT test, HCT-15; assay type: cell-based; settings: Homo sapiens, 10^−5 M, 72 hours, control = 100%, mean ± SEM, read-out: average optical density (MTT), percentage relative to control
Method: (§1) The influence of the compounds of formulae (I) and (Ia) on non-clonogenic cells was evaluated with the aid of the MTT calorimetric test.
(§2) The principle of the MTT test is based on the mitochondrial reduction, by the metabolically active live cells, of the yellow-colored product MTT (3-(4,5-dimethylthiazol-2-yl)-2,5-diphenyltetrazolium bromide) to a blue-colored product, formazan. The amount of formazan thus obtained is directly proportional to the amount of live cells present in the culture well(s). This amount of formazan is measured by spectrophotometry.
(§3) The cell lines are maintained as a monolayer culture at 37° C. in stoppered culture dishes containing MEM 25 MM HEPES (Minimum Essential Medium) base medium. This medium is suited to the growth of a range of various mammalian diploid or primary cells. This medium is then supplemented with:
(§4) an amount of 5% of FCS (Foetal Calf Serum) decomplemented at 56° C. for 1 hour,
(§5) 0.6 mg/ml of L-glutamine,
(§6) 200 μg/ml of streptomycin,
(§7) The 12 human cancer cell lines which were used were obtained from the American Type Culture Collection (ATCC, Rockville, Md., USA). These 12 cell lines are:
HTC-15 (code ATCC: CCL-225) and LoVo (code ATCC: CCL-229) which are two colorectal cancers,
(§8) Experimentally: 100 μl of a cell suspension containing 20 000 to 50 000 (depending on the cell type used) cells/ml of culture medium are inoculated in 96-well flat-bottomed multi-well plates and are incubated at 37° C., under an atmosphere comprising 5% CO2 and 70% humidity. After incubation for 24 hours, the culture medium is replaced with 100 μl of fresh medium containing either the various test compounds at concentrations ranging from 10^−5 to 10^−10 M or the solvent used to dissolve the test products (control condition). After incubation for 72 hours under the above conditions, the culture medium is replaced with 100 μl of a yellowish solution of MTT dissolved at a rate of 1 mg/ml in RPMI 1640. The microplates are reincubated for 3 hours at 37° C. and are then centrifuged for 10 minutes at 400×g. The yellowish solution of MTT is removed and the blue formazan crystals formed in the cell are dissolved in 100 μl of DMSO. The microplates are then shaken for 5 minutes. The intensity of the resulting blue coloration, and thus of the conversion of the yellow product MTT into blue formazan by the cells that are still alive at the end of the experiment, is quantified by spectrophotometry using a Dynatech Immunoassay System machine at wavelengths of 570 nm and 630 nm corresponding, respectively, to the maximum absorption wavelengths of formazan and to the background noise. Software incorporated in the spectrophotometer calculates the average optical density values and the standard deviation (SD) and standard error of mean (SEM) values.
(§9) By way of example, the results of the average optical density, expressed as a percentage relative to the average optical density measured under the control condition (set equal to 100%), obtained at a concentration of 10^−5 M on the 12 abovementioned tumor cell lines are given in Table II.

[2] = tested on: U-373MG; experiment: MTT test, U-373MG; assay type: cell-based; settings: Homo sapiens, U373 MG, 10^−5 M, 72 hours, control = 100%, mean ± SEM, read-out: average optical density (MTT), percentage relative to control
Method: as §1, §2, §3, §4, §5, §6, §7
U-373MG (code ATCC: HTB-17) and U-87MG (code ATCC: HTB-14) which are two glioblastomas,
as §8, §9

| SMILES | viability at 10 µM [1] [%] | viability at 10 µM [2] [%] |
| --- | --- | --- |
| CCN(CC)C(=O)Cn1c(=O)c(-c2ccc(OC)cc2)cc2c(OC)cc(OC)cc21 [CRL8315, N,N-Diethyl-2-[5,7-dimethoxy-3-(4-methoxy-phenyl)-2-oxo-1,2-dihydro-1-quinolinyl]acetamide] | 87.9 ± 3.3 | 68.9 ± 2.2 |
| COc1ccc(-c2cc3c(OC)cc(OC)cc3n(CCN(C)C)c2=O)cc1 [CRL8316, 1-[2-(Dimethylamino)ethyl]-5,7-dimethoxy-3-(4-methoxyphenyl)-1,2-dihydro-2-quinolinone] | 79.8 ± 2.9 | 89.8 ± 2.9 |
| COc1ccc(-c2cc3c(OC)cc(OC)cc3n(CCC#N)c2=O)cc1 [CRL8247, 3-[5,7-Dimethoxy-3-(4-methoxyphenyl)-2-oxo-1,2-dihydro-1-quinolinyl]propanenitrile] | 87.4 ± 2.5 | 68.7 ± 2.8 |
| CCN(CC)C(=O)CCn1c(=O)c(-c2ccc(OC)cc2)cc2c(OC)cc(OC)cc21 [CRL8283, N,N-Diethyl-3-[5,7-dimethoxy-3-(4-methoxy-phenyl)-2-oxo-1,2-dihydro-1-quinolinyl]propanamide] | 58.2 ± 4.3 | 93.4 ± 1.5 |
| COc1ccc(-c2cc3c(OC)cc(OC)cc3n(CCc3nnn[nH]3)c2=O)cc1 [CRL8256, 1-[2-(1H-1,2,3,4-Tetrazol-5-yl)ethyl]-5,7-dimethoxy-3-(4-methoxyphenyl)-1,2-dihydro-2-quinolinone] | 73.9 ± 3.6 | 76.1 ± 2.6 |
| COc1ccc(-c2cc3c(OC)cc(OC)cc3[nH]c2=O)cc1 [CRL8246, 5,7-Dimethoxy-3-(4-methoxyphenyl)-1,2-dihydro-2-quinolinone] | 97.2 ± 5.1 | 96.6 ± 1.2 |
